Assay results taken from patent US9828332B2, “Non-peptide BDNF neurotrophin mimetics” (PHARMATROPHIX, INC., priority 2013, dated 2017).
“And” between values parts separate entries of the source, which are not always exact repeats. Equal entries are not always repeated. Where two headings read alike, the source gives them in different places.

Key:
[1] = Determination of the brain-to-plasma ratio after intraperitoneal administration (plasma and brain homogenate levels by LC-MS/MS); assay type: in vivo, male CD-1 mice; parameters: Brain Tissue Homogen. Conc / Brain Tissue Conc: unit not given here
Protocol: (§1) In this study, the brain-to-plasma ratio of Compound 2 and Compound 3 was evaluated after intraperitoneal dosing in fasted male CD-1 mice. Test compounds were dosed at 50 mg/kg in sterile water for injection. Plasma and brain homogenate levels were determined at 1 and 3 hours post dose by LC-MS/MS.
The dosing solution was diluted in triplicate into mouse plasma and analyzed in parallel with the study samples. The nominal dosing solution concentration was used in all calculations. All concentrations are expressed as […] of the free drug. All data are expressed as ng/mL (equivalent to ng/g for calculation of brain:plasma ratio) of the free drug. Samples that were below the limit of quantitation were not used in the calculation of averages.
Brain-to-plasma ratios were determined by dividing the brain concentration in ng/g by the plasma concentration in ng/g.
Brain samples were homogenizcd with a Virsonic 100 ultrasonic homogenizer. Each brain sample was first weighed, and then an appropriate volume of 20:80 methanol:water was added to make a 4 mL/1 gram sample. Samples were then homogenized on ice, and stored frozen until analysis.
Standards samples were prepared in either CD-1 Mouse plasma containing K2EDTA as an anticoagulant or CD-1 mouse brain homogenate. Working solutions (200 μg/mL and/or 20 μg/mL for each test compound) was prepared in 50:50 ACN:water. Then, a nine-point calibration curve was prepared at concentrations of 2000, 1500, 1000, 500, 100, 50, 20, 10, and 5 ng/mL of each test compound by serial dilution; or for a high-sensitivity method, another nine point calibration curve was prepared at concentrations of 200, 150, 100, 50, 10, 5, 2, 1, and 0.5 ng/mL of each test compound by serial dilution. Standard samples were treated identically to the study samples.
Plasma and brain homogenate samples were extracted via acetonitrile precipitation on a Tomtec Quadra 96-Model 320 liquid handling system in a 96-well plate format.

[2] = Observations and adverse reactions after intraperitoneal administration; assay type: in vivo, CD-1 mice; details: IP 50 mg/kg in sterile water for injection
Protocol: as §1

[3] = IP 50 mg/kg, 1.0 hr post dose, individual mouse, 50 mg/kg
[4] = IP 50 mg/kg, 3.0 hr post dose, individual mouse, 50 mg/kg
[5] = male, CD-1, mouse, brain/plasma, ip, 50 mg/kg, 1 hour post dose, mean of mice, read-out: Average B:P Ratio

B:P Ratio [1, 3]	Brain Tissue Conc [1, 3]	Plasma Conc [1, 3]	Brain Tissue Homogen. Conc ([1]; IP 50 mg/kg, 3.0 hr post dose, individual mouse)	Plasma Conc [1, 4]	concentration at 3 h ([1]; male, CD-1, mouse, brain, ip, 50 mg/kg, 3 hours post dose, read-out: brain tissue concentrations (BLOQ))	Kp at 1 h [1, 5]	Average B:P Ratio ([1]; IP 50 mg/kg, 1 hour post dose, mean of mice, 50 mg/kg)	B:P Ratio ([1]; IP 50 mg/kg, 1.0 hr post dose, individual mouse)	Average B:P Ratio ([1]; IP 50 mg/kg, 3 hours post dose, mean of mice, 50 mg/kg)	B:P Ratio [1, 4]	Kp at 1 h ([1]; male, CD-1, mouse, brain/plasma, ip, 50 mg/kg, 1.0 hr post dose, individual mouse, read-out: B:P Ratio)	Kp at 3 h ([1]; male, CD-1, mouse, brain/plasma, ip, 50 mg/kg, 3 hours post dose, mean of mice, read-out: Average B:P Ratio)	concentration at 1 h ([1]; male, CD-1, mouse, plasma, ip, 50 mg/kg, 1.0 hr post dose, individual mouse, read-out: Plasma Conc)	Structure (SMILES)	adverse effects after intraperitoneal administration [2]
0.01 and 0.1	4.19	675 ng/mL and 30.7 ng/mL and 41.8 ng/mL	BLQ	3.13 ng/mL and 2.22 ng/mL and 16.5 ng/mL	< 0.5 ng/mL	0.056								COCCNC(=O)c1cc(C(=O)NCCOC)cc(C(=O)NCCOC)c1 [Compound 2, N^1,N^3,N^5-tris(2-methoxyethyl)benzene-1,3,5-tricarboxamide]	No adverse effects were observed
		3010 ng/mL and 2440 ng/mL		17.2 ng/mL and 36 ng/mL and 71.7 ng/mL		0.038 ± 0.004	0.038	0.04	0.525	0.78 and 0.24 and 0.55	0.04	0.525 ± 0.275	2770 ng/mL	COCCN(C)C(=O)c1cc(C(=O)N(C)CCOC)cc(C(=O)N(C)CCOC)c1 [Compound 3, N^1,N^3,N^5-tris(2-methoxyethyl)-N^1,N^3,N^5-trimethylbenzene-1,3,5-tricarboxamide]	No adverse effects were observed
